Where two headings read alike, the source gives them in different places.
Columns and labels:
human CA-IX = biological target: T1, human CA-IX (Homo sapiens, UniProt Q16790); assay: Surface Plasmon Resonance (SPR) binding kinetics to recombinant human CA-IX (Biacore 8K, single-cycle kinetics, 1:1 binding model)
T1 construct: purchased Acro CA9-H82E3
Method in brief: (§1)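 Streptavidin capture, 1200-1800 RU; capture injection 180 s (CA-IX) vs 75 s (CA-XII). Analyte 100-0.39 nM, 9 conc., PBS-P+ pH 7.4 + 1% DMSO, 25° C. On 120 s, off 1200 s; ka/kd after reference subtraction and DMSO correction.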

human CA-XII = biological target: T2, human CA-XII (Homo sapiens, UniProt O43570); assay: Surface Plasmon Resonance (SPR) binding kinetics to recombinant human CA-XII (Biacore 8K, single-cycle kinetics, 1:1 binding model)
T2 construct: purchased Creative BioMart CA12-261H
T2 sequence (O43570 25-354): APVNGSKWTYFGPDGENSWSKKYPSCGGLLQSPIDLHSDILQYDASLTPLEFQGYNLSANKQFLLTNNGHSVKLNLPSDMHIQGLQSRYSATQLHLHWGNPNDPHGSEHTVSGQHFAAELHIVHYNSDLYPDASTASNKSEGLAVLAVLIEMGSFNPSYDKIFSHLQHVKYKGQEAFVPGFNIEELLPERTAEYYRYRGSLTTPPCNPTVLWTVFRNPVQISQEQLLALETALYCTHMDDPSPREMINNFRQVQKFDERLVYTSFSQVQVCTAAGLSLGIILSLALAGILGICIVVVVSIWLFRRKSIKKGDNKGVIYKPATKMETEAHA
Method in brief: as §1

[1] = Chelated Metal: Lu-175; SPR, 25° C., pH 7.4; read-out: CAIX KD
[2] = Chelated Metal: Lu-175, 25° C., pH 7.4, read-out: CAXII KD
[3] = read-out: CAIX KD; Chelated Metal: Lu-175; SPR, 25° C., pH 7.4
[4] = read-out: CAXII KD, Chelated Metal: Lu-175, 25° C., pH 7.4

Structure (SMILES) | Kd (human CA-IX; [1]) [nM] | Kd (human CA-XII; [2]) [nM] | Kd (human CA-IX; [3]) [nM] | Kd (human CA-XII; [4]) [nM]
NS(=O)(=O)c1nnc(NC(=O)C23CC(c4cn(CCNC(=O)[C@@H]5CN(C(=O)CN6CCN(CC(=O)O)CCN(CC(=O)O)CCN(CC(=O)O)CC6)CCN5C(=O)CNC(=O)C5(C(=O)O)CCN(C(=O)CCCCc6ccc(I)cc6)CC5)nn4)(C2)C3)s1.[Lu+3] [Compound 112.19] | < 1 | > 10 |  | 
NS(=O)(=O)c1nnc(NC(=O)C23CC(c4cn(CCNC(=O)[C@@H]5CN(C(=O)CN6CCN(CC(=O)O)CCN(CC(=O)O)CCN(CC(=O)O)CC6)CCN5C(=O)CNC(=O)C5(C(=O)O)CCN(C(=O)c6ccc(C7CC7)nn6)CC5)nn4)(C2)C3)s1.[Lu+3] [Compound 112] |  |  | 2.5 to 10 | > 10
NC(=O)C1(C(=O)NCC(=O)N2CCN(C(=O)CN3CCN(CC(=O)O)CCN(CC(=O)O)CCN(CC(=O)O)CC3)C[C@H]2C(=O)NCCn2cc(C34CC(C(=O)Nc5nnc(S(N)(=O)=O)s5)(C3)C4)nn2)CCN(C(=O)c2ccc(C3CC3)nn2)CC1.[Lu+3] [Compound 113] |  |  | 2.5 to 10 | > 10
NS(=O)(=O)c1nnc(NC(=O)C23CC(c4cn(C[C@H]5CN(C(=O)CN6CCN(CC(=O)O)CCN(CC(=O)O)CCN(CC(=O)O)CC6)CCN5C(=O)C[C@H](NC(=O)[C@@H]5COCCN5C(=O)Cc5n[nH]c6ccccc56)C(=O)O)nn4)(C2)C3)s1.[Lu+3] [Compound 114.1] | 1 to 2.5 | > 10 |  | 
NS(=O)(=O)c1nnc(NC(=O)C23CC(c4cn(C[C@H]5CN(C(=O)CN6CCN(CC(=O)O)CCN(CC(=O)O)CCN(CC(=O)O)CC6)CCN5C(=O)[C@@H]5COCCN5C(=O)Cc5n[nH]c6ccccc56)nn4)(C2)C3)s1.[Lu+3] [Compound 114.2] | 1 to 2.5 | > 10 |  | 
NS(=O)(=O)c1nnc(NC(=O)C23CC(c4cn(C[C@H]5CN(C(=O)CN6CCN(CC(=O)O)CCN(CC(=O)O)CCN(CC(=O)O)CC6)CCN5C(=O)[C@@H]5COCCN5C(=O)CCc5n[nH]c6ccccc56)nn4)(C2)C3)s1.[Lu+3] [Compound 114.3] | 1 to 2.5 | > 10 |  | 
CC(CCC(=O)N1CCOC[C@H]1C(=O)N[C@@H](CC(=O)N1CCN(C(=O)CN2CCN(CC(=O)O)CCN(CC(=O)O)CCN(CC(=O)O)CC2)C[C@@H]1Cn1cc(C23CC(C(=O)Nc4nnc(S(N)(=O)=O)s4)(C2)C3)nn1)C(=O)O)(c1ccc(O)cc1)c1ccc(O)cc1.[Lu+3] [Compound 114] |  |  | 1 to 2.5 | > 10
NS(=O)(=O)c1nnc(NC(=O)C23CC(c4cn(C[C@H]5CN(C(=O)CN6CCN(CC(=O)O)CCN(CC(=O)O)CCN(CC(=O)O)CC6)CCN5c5nccc(NCCc6n[nH]c7ccccc67)n5)nn4)(C2)C3)s1.[Lu+3] [Compound 115] |  |  | 2.5 to 10 | > 10
CC(CCC(=O)N[C@@H](CC(=O)N[C@@H](CC(=O)NC1(CCCCn2cc(CCCCC(=O)Nc3nnc(S(N)(=O)=O)s3)nn2)CCN(C(=O)OCCOCCNC(=O)CN2CCN(CC(=O)O)CCN(CC(=O)O)CCN(CC(=O)O)CC2)CC1)C(=O)O)C(=O)O)(c1ccc(O)cc1)c1ccc(O)cc1.[Lu+3] [Compound 116.1] | 1 to 2.5 | 2.5 to 10 |  | 
CC(CCC(=O)N[C@@H](CC(=O)N[C@@H](CC(=O)NC1(CCCCn2cc(CCCC(=O)Nc3nnc(S(N)(=O)=O)s3)nn2)CCN(C(=O)OCCOCCNC(=O)CN2CCN(CC(=O)O)CCN(CC(=O)O)CCN(CC(=O)O)CC2)CC1)C(=O)O)C(=O)O)(c1ccc(O)cc1)c1ccc(O)cc1.[Lu+3] [Compound 116.2] | 1 to 2.5 | 2.5 to 10 |  | 
CC(CCC(=O)N[C@@H](CC(=O)N[C@@H](CC(=O)NC1(CCCCn2cc(CCC(=O)Nc3nnc(S(N)(=O)=O)s3)nn2)CCN(C(=O)OCCOCCNC(=O)CN2CCN(CC(=O)O)CCN(CC(=O)O)CCN(CC(=O)O)CC2)CC1)C(=O)O)C(=O)O)(c1ccc(O)cc1)c1ccc(O)cc1.[Lu+3] [Compound 116.4] | 2.5 to 10 | > 10 |  | 
CC(CCC(=O)N[C@@H](CC(=O)N[C@@H](CC(=O)NC1(CCCCn2cc(CCCC(=O)Nc3nnc(S(N)(=O)=O)s3)nn2)CCN(C(=O)CN2CCN(CC(=O)O)CCN(CC(=O)O)CCN(CC(=O)O)CC2)CC1)C(=O)O)C(=O)O)(c1ccc(O)cc1)c1ccc(O)cc1.[Lu+3] [Compound 116] |  |  | 1 to 2.5 | 2.5 to 10
CC(CCCC(=O)N1CCOC[C@H]1C(=O)N[C@@H](CC(=O)NC1(C(=O)NCCn2cc(C34CC(C(=O)Nc5nnc(S(N)(=O)=O)s5)(C3)C4)nn2)CCN(C(=O)CN2CCN(CC(=O)O)CCN(CC(=O)O)CCN(CC(=O)O)CC2)CC1)C(=O)O)(c1ccc(O)cc1)c1ccc(O)cc1.[Lu+3] [Compound 117.3] | < 1 | > 10 |  | 
CC(CCCC(=O)N1CCC(C(N)=O)(C(=O)NCC(=O)NC2(C(=O)NCCn3cc(C45CC(c6cn7nc(S(N)(=O)=O)sc7n6)(C4)C5)nn3)CCN(C(=O)CN3CCN(CC(=O)O)CCN(CC(=O)O)CCN(CC(=O)O)CC3)CC2)CC1)(c1ccc(O)cc1)c1ccc(O)cc1.[Lu+3] [Compound 117.5] | < 1 | 2.5 to 10 |  | 
CC(CCCC(=O)N1CCC(C(N)=O)(C(=O)NCC(=O)NC2(C(=O)NCCn3cc(C45CCC(C(=O)Nc6nnc(S(N)(=O)=O)s6)(CC4)CC5)nn3)CCN(C(=O)CN3CCN(CC(=O)O)CCN(CC(=O)O)CCN(CC(=O)O)CC3)CC2)CC1)(c1ccc(O)cc1)c1ccc(O)cc1.[Lu+3] [Compound 117.6] | < 1 | 1 to 2.5 |  | 
Cc1cc(C(=O)Nc2nnc(S(N)(=O)=O)s2)ccc1-c1cn(CCNC(=O)C2(NC(=O)CNC(=O)C3(C(N)=O)CCN(C(=O)CCCC(C)(c4ccc(O)cc4)c4ccc(O)cc4)CC3)CCN(C(=O)CN3CCN(CC(=O)O)CCN(CC(=O)O)CCN(CC(=O)O)CC3)CC2)nn1.[Lu+3] [Compound 117.7] | < 1 | > 10 |  | 
CC(CCCC(=O)N1CCC(C(N)=O)(C(=O)NCC(=O)NC2(C(=O)NCCn3cc(COc4ccc5nc(S(N)(=O)=O)sc5c4)nn3)CCN(C(=O)CN3CCN(CC(=O)O)CCN(CC(=O)O)CCN(CC(=O)O)CC3)CC2)CC1)(c1ccc(O)cc1)c1ccc(O)cc1.[Lu+3] [Compound 117.8] | < 1 | > 10 |  | 
CC(CCC(=O)N[C@@H](CC(=O)N[C@@H](CC(=O)NC1(C(=O)NCCn2cc(C34CC(C(=O)Nc5nnc(S(N)(=O)=O)s5)(C3)C4)nn2)CCN(C(=O)CN2CCN(CC(=O)O)CCN(CC(=O)O)CCN(CC(=O)O)CC2)CC1)C(=O)O)C(=O)O)(c1ccc(O)cc1)c1ccc(O)cc1.[Lu+3] [Compound 117] |  |  | 1 to 2.5 | > 10
NS(=O)(=O)c1nnc(CC(=O)C23CC(c4cn(CCNC(=O)[C@H]5COCCN5C(=O)CC[C@H](NC(=O)[C@H](CCCCNC(=O)CN5CCN(CC(=O)O)CCN(CC(=O)O)CCN(CC(=O)O)CC5)NC(=O)CCC5CCCCC5)C(=O)O)nn4)(C2)C3)s1.[Lu+3] [Compound 118.1] | 1 to 2.5 | > 10 |  | 
CC(CCC(=O)N1CCN(C(=O)CN2CCN(CC(=O)O)CCN(CC(=O)O)CCN(CC(=O)O)CC2)C[C@H]1C(=O)N[C@@H](CC(=O)N1CCOC[C@@H]1Cn1cc(C23CC(C(=O)Nc4nnc(S(N)(=O)=O)s4)(C2)C3)nn1)C(=O)O)(c1ccc(O)cc1)c1ccc(O)cc1.[Lu+3] [Compound 118.2] | 1 to 2.5 | > 10 |  | 
NS(=O)(=O)c1nnc(NC(=O)C23CC(c4cn(CCNC(=O)[C@H]5CNCCN5C(=O)[C@H](CCCCNC(=O)CN5CCN(CC(=O)O)CCN(CC(=O)O)CCN(CC(=O)O)CC5)NC(=O)CC[C@H](NC(=O)c5n[nH]c6ccccc56)C(=O)O)nn4)(C2)C3)s1.[Lu+3] [Compound 118.3] | 2.5 to 10 | 2.5 to 10 |  | 
NS(=O)(=O)c1nnc(CC(=O)C23CC(c4cn(CCNC(=O)[C@H]5COCCN5C(=O)CC[C@H](NC(=O)[C@H](CCCCNC(=O)CN5CCN(CC(=O)O)CCN(CC(=O)O)CCN(CC(=O)O)CC5)NC(=O)c5n[nH]c6ccccc56)C(=O)O)nn4)(C2)C3)s1.[Lu+3] [Compound 118.4] | 1 to 2.5 | > 10 |  | 
NS(=O)(=O)c1nnc(NC(=O)C23CC(c4cn(CCNC(=O)[C@H]5CNCCN5C(=O)[C@H](CCCCNC(=O)CN5CCN(CC(=O)O)CCN(CC(=O)O)CCN(CC(=O)O)CC5)NC(=O)CC[C@H](NC(=O)CCC5CCCCC5)C(=O)O)nn4)(C2)C3)s1.[Lu+3] [Compound 118] |  |  | 1 to 2.5 | 2.5 to 10
CC(CCC(=O)N[C@@H](CC(=O)N[C@@H](CC(=O)N1CCN(C(=O)CN2CCN(CC(=O)O)CCN(CC(=O)O)CCN(CC(=O)O)CC2)C[C@H]1C(=O)NCC(=O)N1CCC2(CC1)CC(C(=O)Nc1nnc(S(N)(=O)=O)s1)C2)C(=O)O)C(=O)O)(c1ccc(O)cc1)c1ccc(O)cc1.[Lu+3] [Compound 119] |  |  | 2.5 to 10 | > 10
CC(CCC(=O)N[C@@H](CC(=O)N[C@@H](CC(=O)N[C@@H](CCCCN1CCN(c2ccc(C(=O)Nc3nnc(S(N)(=O)=O)s3)cc2)CC1)C(=O)NCCOCCOCCNC(=O)CN1CCN(CC(=O)O)CCN(CC(=O)O)CCN(CC(=O)O)CC1)C(=O)O)C(=O)O)(c1ccc(O)cc1)c1ccc(O)cc1.[Lu+3] [Compound 121.1] | 1 to 2.5 | > 10 |  | 
CC(CCC(=O)N[C@@H](CC(=O)N[C@@H](CC(=O)N[C@@H](CCCCN1CCN(c2ccc(C(=O)Nc3nnc(S(N)(=O)=O)s3)cc2)CC1)C(=O)NCCOCCOCCNC(=O)CN1CCN(CC(=O)O)CCN(CC(=O)O)CCN(CC(=O)O)CC1)C(=O)O)C(=O)O)(c1ccc(O)cc1)c1ccc(O)cc1.[Lu+3] [Compound 121] |  |  | < 1 | > 10
CC(CCC(=O)N[C@@H](CC(=O)N[C@@H](CC(=O)N[C@@H](CCCCn1nnc(C(=O)O)c1C12CCC(C(=O)Nc3nnc(S(N)(=O)=O)s3)(CC1)CC2)C(=O)NCCOCCOCCNC(=O)CN1CCN(CC(=O)O)CCN(CC(=O)O)CCN(CC(=O)O)CC1)C(=O)O)C(=O)O)(c1ccc(O)cc1)c1ccc(O)cc1.[Lu+3] [Compound 122] |  |  | 1 to 2.5 | 1 to 2.5
